According to ChEMBL document CHEMBL3400128, “Design, synthesis and biological evaluation of functionalized phthalimides: a new class of antimalarials and inhibitors of falcipain-2, a major hemoglobinase of malaria parasite” (Bioorg Med Chem, 2015):
Where “and” joins values, the source holds several entries; their conditions need not be identical. Identical values can stand only once. Calls of active or inactive are those of the source. The calls are words filed in the database; no cut-off is given here.

How the values were obtained:
Plasmodium falciparum [1] = test: Antimicrobial activity against ring stage trophozoite chloroquine-sensitive Plasmodium falciparum 3D7 infected in human erythrocyte assessed as abnormal morphologies at 43.68 uM after 16 hrs by Giemsa staining based light microscopy; format: functional, organism-based
Plasmodium falciparum [2] = test: Antimalarial activity against chloroquine-sensitive Plasmodium falciparum 3D7 infected in human erythrocyte assessed as parasite viability after 48 hrs by [3H]hypoxanthine incorporation based liquid scintillation counting analysis; format: functional, organism-based
Plasmodium falciparum [3] = test: Antimalarial activity against chloroquine-sensitive Plasmodium falciparum 3D7 infected in human erythrocyte assessed as parasite viability after 60 hrs by [3H]hypoxanthine incorporation based liquid scintillation counting analysis; format: functional, organism-based
Plasmodium falciparum [4] = test: Antimicrobial activity against blood stage chloroquine-sensitive Plasmodium falciparum 3D7 infected in human erythrocyte assessed as abnormal morphologies at 21.8 uM after 6 hrs by Giemsa staining based light microscopy; format: functional, organism-based
Plasmodium falciparum [5] = test: Antimicrobial activity against blood stage chloroquine-sensitive Plasmodium falciparum 3D7 infected in human erythrocyte assessed as abnormal morphologies at 43.68 uM after 6 hrs by Giemsa staining based light microscopy; format: functional, organism-based
Plasmodium falciparum [6] = test: Antimicrobial activity against blood stage chloroquine-sensitive Plasmodium falciparum 3D7 infected in human erythrocyte assessed as inhibition of invasion event of merozoites after 6 hrs by Giemsa staining based light microscopy; format: functional, organism-based
Plasmodium falciparum [7] = test: Antimicrobial activity against chloroquine-resistant Plasmodium falciparum 7G8 infected in human erythrocyte assessed as parasite viability after 48 hrs by [3H]hypoxanthine incorporation based liquid scintillation counting analysis; format: functional
Plasmodium falciparum [8] = test: Antimicrobial activity against ring stage trophozoite chloroquine-sensitive Plasmodium falciparum 3D7 infected in human erythrocyte assessed as abnormal morphologies at 21.8 uM after 16 hrs by Giemsa staining based light microscopy; format: functional, organism-based
Plasmodium falciparum [9] = test: Antimalarial activity against chloroquine-sensitive Plasmodium falciparum 3D7 infected in human erythrocyte assessed as parasite viability after 90 hrs by [3H]hypoxanthine incorporation based liquid scintillation counting analysis; format: functional, organism-based
[10] = Toxicity in human erythrocytes assessed as hemolytic activity up to 50 ug/ml after 42 hrs by spectrophotometric analysis; format: cell-based; conditions: erythrocyte
Plasmodium falciparum [11] = test: Antimicrobial activity against chloroquine-sensitive Plasmodium falciparum 3D7 infected in human erythrocyte assessed as parasite viability at 6.25 to 25 ng/ml after 42 hrs by [3H]hypoxanthine incorporation based liquid scintillation counting analysis; format: functional, organism-based
[12] = target: T1, Falcipain 2 (Plasmodium falciparum) (UniProt Q9N6S8); test: Inhibition of Plasmodium falciparum Falcipain 2 using Z-Leu-Arg-AMC substrate assessed as fluorogenic substrate hydrolysis
T1 sequence (whole entry): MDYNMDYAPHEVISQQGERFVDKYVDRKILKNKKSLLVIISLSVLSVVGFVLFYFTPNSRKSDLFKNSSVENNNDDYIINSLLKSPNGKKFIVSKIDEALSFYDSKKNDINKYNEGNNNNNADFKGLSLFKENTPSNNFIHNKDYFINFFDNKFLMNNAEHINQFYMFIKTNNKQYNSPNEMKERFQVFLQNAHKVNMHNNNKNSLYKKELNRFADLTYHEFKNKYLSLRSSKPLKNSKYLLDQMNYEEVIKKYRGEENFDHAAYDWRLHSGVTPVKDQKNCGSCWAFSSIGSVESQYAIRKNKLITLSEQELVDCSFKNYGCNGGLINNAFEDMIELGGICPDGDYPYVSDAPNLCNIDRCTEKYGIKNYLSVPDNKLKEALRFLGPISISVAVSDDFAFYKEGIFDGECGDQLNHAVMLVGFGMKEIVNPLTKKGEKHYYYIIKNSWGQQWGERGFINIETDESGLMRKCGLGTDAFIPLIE

[13] = target: T1, Falcipain 2 (Plasmodium falciparum); test: Inhibition of Plasmodium falciparum Falcipain 2 at 5 nM by hemoglobin hydrolysis assay
[14] = target: T1, Falcipain 2 (Plasmodium falciparum); test: Inhibition of Plasmodium falciparum Falcipain 2 at 500 nM by hemoglobin hydrolysis assay
Plasmodium falciparum [15] = test: Antimicrobial activity against ring stage trophozoite chloroquine-sensitive Plasmodium falciparum 3D7 infected in human erythrocyte assessed as abnormal morphologies at 27.64 uM after 16 hrs by Giemsa staining based light microscopy; format: functional, organism-based
Plasmodium falciparum [16] = test: Antimicrobial activity against chloroquine-sensitive Plasmodium falciparum 3D7 infected in human erythrocyte assessed as parasite viability after 42 hrs by [3H]hypoxanthine incorporation based liquid scintillation counting analysis in presence of 6.25 ng/ml; format: functional, organism-based
Plasmodium falciparum [17] = test: Antimicrobial activity against ring stage trophozoite chloroquine-sensitive Plasmodium falciparum 3D7 infected in human erythrocyte assessed as abnormal morphologies at 55.28 uM after 16 hrs by Giemsa staining based light microscopy; format: functional, organism-based
Plasmodium falciparum [18] = test: Antimicrobial activity against chloroquine-sensitive Plasmodium falciparum 3D7 infected in human erythrocyte assessed as parasite viability after 42 hrs by [3H]hypoxanthine incorporation based liquid scintillation counting analysis in presence of 25 ng/ml; format: functional, organism-based
Plasmodium falciparum [19] = test: Antimicrobial activity against blood stage chloroquine-sensitive Plasmodium falciparum 3D7 infected in human erythrocyte assessed as abnormal morphologies at 55.28 uM after 6 hrs by Giemsa staining based light microscopy; format: functional, organism-based
Plasmodium falciparum [20] = test: Antimicrobial activity against chloroquine-sensitive Plasmodium falciparum 3D7 infected in human erythrocyte assessed as parasite viability after 42 hrs by [3H]hypoxanthine incorporation based liquid scintillation counting analysis in presence of 12.5 ng/ml; format: functional, organism-based
Plasmodium falciparum [21] = test: Antimicrobial activity against blood stage chloroquine-sensitive Plasmodium falciparum 3D7 infected in human erythrocyte assessed as abnormal morphologies at 27.64 uM after 6 hrs by Giemsa staining based light microscopy; format: functional, organism-based

Compound: O=C([C@H](Cc1ccccc1)N1C(=O)c2ccccc2C1=O)N1CCC(Cc2ccccc2)CC1
- Activity (Plasmodium falciparum [1]): Active
- IC50 (Plasmodium falciparum [2]): 5.5 µg/mL and 12.2 µM
- IC50 (Plasmodium falciparum [3]): 5000 nM
- Activity (Plasmodium falciparum [4]): Active
- Activity (Plasmodium falciparum [5]): Active
- inhibition (Plasmodium falciparum [6]): Dose-dependent effect
- IC50 (Plasmodium falciparum [7]): 13300 nM
- Activity (Plasmodium falciparum [8]): Active
- IC50 (Plasmodium falciparum [9]): 3800 nM
- Activity [10]: Non-toxic

Compound: CC(C)C[C@@H](C(=O)N1CCC(Cc2ccccc2)CC1)N1C(=O)c2ccccc2C1=O
- IC50 (Plasmodium falciparum [2]): 18.5 µg/mL and 44.2 µM

Compound: C[C@@H]1CC[C@H]2[C@@H](C)C(=O)O[C@@H]3O[C@@]4(C)CC[C@@H]1[C@]32OO4 [ARTEMISININ]
- IC50 (Plasmodium falciparum [2]): 0.045 µg/mL and 159 nM
- inhibition (Plasmodium falciparum [11]): inactive

Compound: CC(C)C[C@@H](C(=O)N1CCCCC1)N1C(=O)c2ccccc2C1=O
- IC50 (Plasmodium falciparum [2]): 71.5 µg/mL and 218 µM

Compound: O=C([C@H](Cc1ccccc1)N1C(=O)c2ccccc2C1=O)N1CCN(C(=O)[C@H](Cc2ccccc2)N2C(=O)c3ccccc3C2=O)CC1
- IC50 (Plasmodium falciparum [2]): 33.8 µg/mL and 52.7 µM
- inhibition [12]: Active

Compound: CC[C@@H](C)[C@@H](C(=O)N1CCCC1)N1C(=O)c2ccccc2C1=O
- IC50 (Plasmodium falciparum [2]): 46 µg/mL and 146 µM

Compound: O=C([C@H](Cc1ccccc1)N1C(=O)c2ccccc2C1=O)N1CCCC1
- inhibition [13]: Active
- IC50 (Plasmodium falciparum [2]): 31.5 µg/mL and 87.6 µM
- inhibition [12]: Active
- inhibition [14]: Active

Compound: CC[C@@H](C)[C@@H](C(=O)N1CCN(C(=O)[C@H]([C@H](C)CC)N2C(=O)c3ccccc3C2=O)CC1)N1C(=O)c2ccccc2C1=O
- Activity (Plasmodium falciparum [15]): Active
- IC50 (Plasmodium falciparum [16]): 2440 nM
- IC50 (Plasmodium falciparum [2]): 3.42 µg/mL and 5.97 µM
- Activity (Plasmodium falciparum [17]): Active
- IC50 (Plasmodium falciparum [18]): 1390 nM
- Activity (Plasmodium falciparum [19]): Active
- IC50 (Plasmodium falciparum [3]): 2000 nM
- IC50 (Plasmodium falciparum [20]): 1920 nM
- Activity (Plasmodium falciparum [21]): Active
- inhibition (Plasmodium falciparum [6]): Dose-dependent effect
- IC50 (Plasmodium falciparum [7]): 7210 nM
- IC50 (Plasmodium falciparum [9]): 1100 nM
- Activity [10]: Non-toxic

Compound: CC(C)C[C@@H](C(=O)N1CCN(C(=O)[C@H](CC(C)C)N2C(=O)c3ccccc3C2=O)CC1)N1C(=O)c2ccccc2C1=O
- IC50 (Plasmodium falciparum [2]): 61 µg/mL and 203 µM

Compound: CC(C)C[C@@H](C(=O)N1CCCC1)N1C(=O)c2ccccc2C1=O
- IC50 (Plasmodium falciparum [2]): 74.2 µg/mL and 236 µM

Compound: CC(C)[C@@H](C(=O)N1CCCCC1)N1C(=O)c2ccccc2C1=O
- IC50 (Plasmodium falciparum [2]): 41 µg/mL and 130 µM

Compound: CC(C)[C@@H](C(=O)N1CCOCC1)N1C(=O)c2ccccc2C1=O
- IC50 (Plasmodium falciparum [2]): 65 µg/mL and 206 µM

Compound: CC(C)[C@@H](C(=O)N1CCC(Cc2ccccc2)CC1)N1C(=O)c2ccccc2C1=O
- IC50 (Plasmodium falciparum [2]): 19.5 µg/mL and 48.2 µM

Compound: CC[C@@H](C)[C@@H](C(=O)N1CCCCC1)N1C(=O)c2ccccc2C1=O
- IC50 (Plasmodium falciparum [2]): 35 µg/mL and 107 µM

Compound: O=C([C@H](Cc1ccccc1)N1C(=O)c2ccccc2C1=O)N1CCCCC1
- IC50 (Plasmodium falciparum [2]): 13 µg/mL and 36 µM

Compound: CC(C)[C@@H](C(=O)N1CCN(C(=O)[C@H](C(C)C)N2C(=O)c3ccccc3C2=O)CC1)N1C(=O)c2ccccc2C1=O
- IC50 (Plasmodium falciparum [2]): 9.2 µg/mL and 16.9 µM

Compound: CC[C@H](C)[C@@H](C(=O)N1CCC(Cc2ccccc2)CC1)N1C(=O)c2ccccc2C1=O
- IC50 (Plasmodium falciparum [2]): 22.5 µg/mL and 53.8 µM

Compound: CC(C)C[C@@H](C(=O)N1CCOCC1)N1C(=O)c2ccccc2C1=O
- IC50 (Plasmodium falciparum [2]): 46 µg/mL and 139 µM

Compound: CC(C)[C@@H](C(=O)N1CCCC1)N1C(=O)c2ccccc2C1=O
- IC50 (Plasmodium falciparum [2]): 42.5 µg/mL and 142 µM

Compound: CC[C@@H](C)[C@@H](C(=O)N1CCOCC1)N1C(=O)c2ccccc2C1=O
- IC50 (Plasmodium falciparum [2]): 20 µg/mL and 60.6 µM

Compound: O=C([C@H](Cc1ccccc1)N1C(=O)c2ccccc2C1=O)N1CCOCC1
- inhibition [13]: Active
- IC50 (Plasmodium falciparum [2]): 18 µg/mL and 49.4 µM
- inhibition [12]: Active
- inhibition [14]: Active
